# Laboratory results from publication PMC5834903, “Phytochemical profiling and in vitro screening for anticholinesterase, antioxidant, antiglucosidase and neuroprotective effect of three traditional medicinal plants for Alzheimer’s Disease and Diabetes Mellitus dual therapy” (BMC Complementary and Alternative Medicine, 2018).
# Target: T1, β–glucosidase
# T1 construct: gene emulsin; sweet almond is only the usual commercial preparation
# Test: p-nitrophenol release, […] nm
# Type: biochemical
# Settings: p-nitrophenyl β-D-glucopyranoside […], phosphate buffer pH […] °C
compound,measurement,value
O=C1O[C@H](CO)[C@@H](O)[C@H](O)[C@H]1O [D-Glucono-δ-lactone],IC50 Values (μg/mL) / β-Glc,10.68 ± 0.005 µg/mL
